Data on three compounds can be found in ChEMBL document CHEMBL4118122, “Identification and biological evaluation of thiazole-based inverse agonists of RORγt” (Bioorg Med Chem Lett, 2018).

Molecules are shown by their SMILES. ≈ marks a conversion by molar mass, not a printed value. Bounds are passed on as bounds.

Series [1] concerns the target T1, PXR (NR1I2) (Homo sapiens, UniProt O75469).
T1 sequence (O75469 whole entry): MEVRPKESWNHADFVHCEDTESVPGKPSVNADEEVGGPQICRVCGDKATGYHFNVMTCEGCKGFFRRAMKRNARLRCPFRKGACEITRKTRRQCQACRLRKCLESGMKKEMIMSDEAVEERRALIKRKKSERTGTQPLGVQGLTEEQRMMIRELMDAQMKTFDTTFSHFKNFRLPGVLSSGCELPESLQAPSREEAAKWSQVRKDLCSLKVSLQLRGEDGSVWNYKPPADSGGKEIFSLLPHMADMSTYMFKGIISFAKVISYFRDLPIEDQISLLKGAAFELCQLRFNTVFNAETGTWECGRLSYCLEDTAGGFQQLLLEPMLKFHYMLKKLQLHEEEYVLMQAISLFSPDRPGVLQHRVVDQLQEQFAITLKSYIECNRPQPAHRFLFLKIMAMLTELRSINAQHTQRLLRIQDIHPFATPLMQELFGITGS
Kind of series: […] at PXR LBD (unknown origin) expressed in HEK293 cells […] at 1 uM after 16 hrs by luciferase reporter gene assay relative to rifampicin. The series is classed as ADME, cell-based. The note with it: HEK293 cells expressing PXR LBD, read-out: Efficacy.

Series [2] can be described thus: Thermodynamic solubility of the compound in 30 mM phosphate buffer at 10 mM at pH 7 after 2 to 5 days by UV-HPLC analysis. Type of series: physicochemical. To be noted: read-out: Therm_solubility.
Series [3] is described as follows: Thermodynamic solubility of the compound in fasted state simulated intestinal […] after 2 to 5 days by UV-HPLC analysis. Type of series: physicochemical. The note with it: read-out: Therm_solubility.
Series [4] has as its target T1, PXR (NR1I2). Kind of series: […] at PXR LBD (unknown origin) expressed in HEK293 cells […] at 10 uM after 16 hrs by luciferase reporter gene assay relative to rifampicin. The series is classed as ADME, cell-based. To be noted: HEK293 cells expressing PXR LBD, read-out: Efficacy. On the technique in general: A reporter such as luciferase makes a cellular process visible.

Series [5] can be described thus: Half life in rat microsomes. Type of series: ADME, Microsome.
Series [6] in a line: Half life in human microsomes. The series is classed as ADME, Microsome.
The target of the next series is T2, Cytochrome P450 1A2 (Homo sapiens, UniProt P05177).
T2 sequence (P05177 whole entry): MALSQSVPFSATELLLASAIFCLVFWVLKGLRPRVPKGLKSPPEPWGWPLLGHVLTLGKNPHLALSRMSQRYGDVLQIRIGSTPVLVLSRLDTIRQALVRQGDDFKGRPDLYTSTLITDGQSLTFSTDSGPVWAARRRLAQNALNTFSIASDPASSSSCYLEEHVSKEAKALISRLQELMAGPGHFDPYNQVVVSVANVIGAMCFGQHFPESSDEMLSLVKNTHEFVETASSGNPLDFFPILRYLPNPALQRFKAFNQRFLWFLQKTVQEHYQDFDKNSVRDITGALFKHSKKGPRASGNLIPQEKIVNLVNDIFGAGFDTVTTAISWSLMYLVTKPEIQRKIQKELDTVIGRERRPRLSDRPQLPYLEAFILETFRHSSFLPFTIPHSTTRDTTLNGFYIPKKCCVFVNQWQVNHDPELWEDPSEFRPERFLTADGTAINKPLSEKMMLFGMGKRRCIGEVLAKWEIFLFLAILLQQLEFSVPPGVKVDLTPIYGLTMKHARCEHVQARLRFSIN
Kind of series: Inhibition of CYP1A2 (unknown origin). Type of series: ADME.

The target of a further series is Cytochrome P450 2C19 (Homo sapiens, UniProt P33261). Kind of series: Inhibition of CYP2C19 (unknown origin). Type of series: ADME.
The target in another series is T3, Cytochrome P450 2C8 (Homo sapiens, UniProt P10632).
T3 sequence (P10632 whole entry): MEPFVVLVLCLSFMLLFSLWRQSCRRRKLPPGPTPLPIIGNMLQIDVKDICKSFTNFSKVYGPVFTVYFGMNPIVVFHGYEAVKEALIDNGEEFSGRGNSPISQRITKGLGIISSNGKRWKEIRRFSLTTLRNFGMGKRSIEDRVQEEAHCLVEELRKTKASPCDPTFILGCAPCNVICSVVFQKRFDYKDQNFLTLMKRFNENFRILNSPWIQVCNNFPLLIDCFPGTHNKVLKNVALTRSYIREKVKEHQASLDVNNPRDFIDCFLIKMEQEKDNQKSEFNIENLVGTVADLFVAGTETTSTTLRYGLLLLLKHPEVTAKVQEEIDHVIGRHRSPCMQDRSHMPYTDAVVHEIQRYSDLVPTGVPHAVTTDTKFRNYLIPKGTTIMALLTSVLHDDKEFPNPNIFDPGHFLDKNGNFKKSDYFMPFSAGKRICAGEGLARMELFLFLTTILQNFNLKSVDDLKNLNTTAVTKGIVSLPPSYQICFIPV
Kind of series: Inhibition of CYP2C8 (unknown origin). The series is classed as ADME.

The next series concerns the target Cytochrome P450 2C9 (Homo sapiens, UniProt P11712). Kind of series: Inhibition of CYP2C9 (unknown origin). The series is classed as ADME.
The target in another series is Cytochrome P450 2D6 (Homo sapiens, UniProt P10635). Kind of series: Inhibition of CYP2D6 (unknown origin). The series is classed as ADME.
The next series concerns the target Cytochrome P450 3A4 (Homo sapiens, UniProt P08684). Kind of series: Inhibition of CYP3A4 (unknown origin). Type of series: ADME.
Series [7] can be described thus: Volume of distribution at steady state in Sprague-Dawley rat at 0.5 mg/kg, iv. Type of series: ADME, organism-based. The note with it: in vivo, read-out: Vdss.
For a further series, the system named is Rattus norvegicus. Kind of series: AUC (0 to infinity) in Sprague-Dawley rat at 0.5 mg/kg, iv. On the set-up: dose 0.5 mg/kg, route intravenous, time infinity. To be noted: in vivo. Type of series: ADME, organism-based.
Series [8] in a line: Initial plasma concentration in Sprague-Dawley rat at 0.5 mg/kg, iv. Type of series: ADME, organism-based.
A short description of series [9]: Half life in Sprague-Dawley rat at 0.5 mg/kg, iv. Type of series: ADME, organism-based. The note with it: in vivo.
The nature of series [10]: Cmax in Sprague-Dawley rat at 2.5 mg/kg, po. Type of series: ADME, organism-based. On the set-up: dose 2.5 mg/kg, route oral. The note with it: in vivo.
The nature of series [11]: Tmax in Sprague-Dawley rat at 2.5 mg/kg, po. The series is classed as ADME, organism-based. The note with it: in vivo.
A short description of series [12]: AUC (0 to infinity) in Sprague-Dawley rat at 2.5 mg/kg, po. The series is classed as ADME, organism-based. On the set-up: dose 2.5 mg/kg, time infinity, route oral. The note with it: in vivo.
Series [13] is described as follows: Terminal half life in Sprague-Dawley rat at 2.5 mg/kg, po. The series is classed as ADME, organism-based. To be noted: in vivo, read-out: beta t1/2 (converted).
A short description of series [14]: Oral bioavailability in Sprague-Dawley rat at 2.5 mg/kg. The series is classed as ADME, organism-based. The note with it: in vivo.
The nature of series [15]: Glutathione reactivity assessed as GSH adduct formation. Type of series: physicochemical.
Series [16] has as its target Voltage-gated inwardly rectifying potassium channel KCNH2 (Homo sapiens, UniProt Q12809). Kind of series: Inhibition of human ERG.

Sequence of Cytochrome P450 3A4 (P08684 whole entry): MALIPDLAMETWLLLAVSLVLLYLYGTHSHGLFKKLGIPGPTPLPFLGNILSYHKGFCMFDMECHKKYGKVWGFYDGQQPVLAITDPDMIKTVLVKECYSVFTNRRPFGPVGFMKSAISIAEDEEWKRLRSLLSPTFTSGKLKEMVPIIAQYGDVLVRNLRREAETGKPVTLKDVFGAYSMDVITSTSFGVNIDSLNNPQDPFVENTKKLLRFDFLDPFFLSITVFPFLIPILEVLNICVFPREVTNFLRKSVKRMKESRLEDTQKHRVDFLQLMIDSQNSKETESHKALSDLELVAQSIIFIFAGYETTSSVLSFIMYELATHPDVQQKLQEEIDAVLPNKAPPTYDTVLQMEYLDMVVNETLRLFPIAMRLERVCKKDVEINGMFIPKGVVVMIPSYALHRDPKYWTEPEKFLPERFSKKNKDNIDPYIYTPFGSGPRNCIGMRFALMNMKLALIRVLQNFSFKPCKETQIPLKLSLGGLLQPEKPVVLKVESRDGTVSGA
Sequence of Cytochrome P450 2C19 (P33261 whole entry): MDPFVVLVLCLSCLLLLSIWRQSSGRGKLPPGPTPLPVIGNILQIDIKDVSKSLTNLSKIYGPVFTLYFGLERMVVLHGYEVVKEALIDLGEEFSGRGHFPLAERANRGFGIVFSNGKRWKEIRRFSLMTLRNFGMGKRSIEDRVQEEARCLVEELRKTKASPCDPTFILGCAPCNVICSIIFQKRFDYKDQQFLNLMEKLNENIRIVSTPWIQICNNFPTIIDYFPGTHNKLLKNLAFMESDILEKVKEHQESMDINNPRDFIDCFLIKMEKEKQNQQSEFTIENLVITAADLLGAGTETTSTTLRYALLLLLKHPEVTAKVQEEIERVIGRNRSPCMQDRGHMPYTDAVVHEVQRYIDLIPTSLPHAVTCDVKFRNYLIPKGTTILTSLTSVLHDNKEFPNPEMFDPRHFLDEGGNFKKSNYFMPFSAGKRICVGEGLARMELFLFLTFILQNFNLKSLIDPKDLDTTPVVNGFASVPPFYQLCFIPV
Sequence of Cytochrome P450 2D6 (P10635 whole entry): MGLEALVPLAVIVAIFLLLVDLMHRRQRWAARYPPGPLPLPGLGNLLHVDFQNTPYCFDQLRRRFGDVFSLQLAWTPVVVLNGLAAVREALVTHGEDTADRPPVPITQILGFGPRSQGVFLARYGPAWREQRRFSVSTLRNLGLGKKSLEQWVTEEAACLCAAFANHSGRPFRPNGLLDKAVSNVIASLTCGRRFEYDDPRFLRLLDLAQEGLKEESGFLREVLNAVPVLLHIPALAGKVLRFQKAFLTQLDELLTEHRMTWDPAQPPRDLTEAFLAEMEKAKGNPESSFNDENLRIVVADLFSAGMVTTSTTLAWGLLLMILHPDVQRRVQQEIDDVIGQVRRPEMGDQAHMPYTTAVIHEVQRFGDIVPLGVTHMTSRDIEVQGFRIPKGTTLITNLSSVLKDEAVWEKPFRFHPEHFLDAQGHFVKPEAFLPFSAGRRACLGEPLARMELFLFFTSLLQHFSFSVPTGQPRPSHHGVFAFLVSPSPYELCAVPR
Sequence of Cytochrome P450 2C9 (P11712 whole entry): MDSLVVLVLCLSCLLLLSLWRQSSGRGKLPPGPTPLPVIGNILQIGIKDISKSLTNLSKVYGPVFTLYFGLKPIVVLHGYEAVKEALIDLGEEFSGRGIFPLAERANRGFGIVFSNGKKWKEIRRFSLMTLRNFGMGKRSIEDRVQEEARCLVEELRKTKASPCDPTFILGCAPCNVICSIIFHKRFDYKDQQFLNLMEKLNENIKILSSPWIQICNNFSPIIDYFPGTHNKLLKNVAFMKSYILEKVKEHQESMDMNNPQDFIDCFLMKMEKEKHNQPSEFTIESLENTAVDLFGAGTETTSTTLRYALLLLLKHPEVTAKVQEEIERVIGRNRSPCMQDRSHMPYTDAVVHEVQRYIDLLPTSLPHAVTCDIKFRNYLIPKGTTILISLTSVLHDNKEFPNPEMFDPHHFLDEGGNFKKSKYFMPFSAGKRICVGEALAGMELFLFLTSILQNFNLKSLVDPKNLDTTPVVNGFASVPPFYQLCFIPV
Sequence of Voltage-gated inwardly rectifying potassium channel KCNH2 (Q12809 whole entry): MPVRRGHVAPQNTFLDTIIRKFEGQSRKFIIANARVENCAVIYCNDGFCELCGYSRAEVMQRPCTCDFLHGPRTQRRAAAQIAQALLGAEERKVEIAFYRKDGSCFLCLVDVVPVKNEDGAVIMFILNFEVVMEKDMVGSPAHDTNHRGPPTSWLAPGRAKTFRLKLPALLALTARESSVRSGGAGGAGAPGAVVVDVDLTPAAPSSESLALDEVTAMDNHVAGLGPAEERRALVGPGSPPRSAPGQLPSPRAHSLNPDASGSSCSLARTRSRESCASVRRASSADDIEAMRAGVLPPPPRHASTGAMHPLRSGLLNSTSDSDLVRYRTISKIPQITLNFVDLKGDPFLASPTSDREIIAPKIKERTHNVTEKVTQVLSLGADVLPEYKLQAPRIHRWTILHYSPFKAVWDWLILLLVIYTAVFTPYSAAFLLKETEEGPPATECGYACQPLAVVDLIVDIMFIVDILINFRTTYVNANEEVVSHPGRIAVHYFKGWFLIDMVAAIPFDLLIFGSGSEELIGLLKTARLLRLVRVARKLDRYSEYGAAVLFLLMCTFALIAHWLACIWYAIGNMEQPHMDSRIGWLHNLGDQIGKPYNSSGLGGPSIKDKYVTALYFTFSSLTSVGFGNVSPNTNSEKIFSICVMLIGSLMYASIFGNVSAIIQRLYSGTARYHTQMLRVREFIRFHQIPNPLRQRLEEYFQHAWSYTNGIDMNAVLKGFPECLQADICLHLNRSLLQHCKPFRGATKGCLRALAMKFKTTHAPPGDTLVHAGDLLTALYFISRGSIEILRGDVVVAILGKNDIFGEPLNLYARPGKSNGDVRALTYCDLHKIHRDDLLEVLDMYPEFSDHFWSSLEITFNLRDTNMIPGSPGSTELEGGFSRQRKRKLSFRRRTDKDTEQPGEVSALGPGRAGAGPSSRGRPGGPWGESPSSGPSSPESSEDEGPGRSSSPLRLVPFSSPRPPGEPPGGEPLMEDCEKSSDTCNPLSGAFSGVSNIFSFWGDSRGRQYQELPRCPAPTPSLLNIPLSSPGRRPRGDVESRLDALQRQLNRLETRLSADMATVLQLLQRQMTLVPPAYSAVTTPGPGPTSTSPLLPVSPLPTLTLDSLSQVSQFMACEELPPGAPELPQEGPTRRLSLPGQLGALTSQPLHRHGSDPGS

On to `CC(C)(C)NS(=O)(=O)c1ncc(-c2sc(C(=O)N[C@H]3C[C@H](C(=O)O)C3)nc2CC2CCCCC2)c2ccccc12`, for which the Emax at 16 h, 1 µM at PXR (NR1I2) [1] is 18%. For the same compound, the solubility thermodynamic at 10000 µM in series [2] turned out to be 13 µM (≈ 7.6 µg/mL). Also, the solubility thermodynamic in series [3] is 382 µM (≈ 223 µg/mL). Moreover, at PXR (NR1I2) [4], the Emax at 16 h, 10 µM came to 102%. Moreover, the half-life in [5] is 61 min; in series [6] it was 77 min; in series [9] it was 18 min; in series [13], 150 min. Further, the INH on Cytochrome P450 1A2, at Cytochrome P450 2C19, at Cytochrome P450 2C8, on Cytochrome P450 2C9, on Cytochrome P450 2D6 and at Cytochrome P450 3A4 was over 10 µM throughout. Besides, the Vd in [7] stood at 1.1 L/kg. In the series on Rattus norvegicus, this compound showed an AUC of 232 ng·h/mL. Besides, in series [8], the C0 came out at 2800 ng/mL. In [10], the peak concentration (Cmax) was 52 ng/mL. The Tmax in series [11] was found to be 24 min. In [12], the AUC(0-inf) turned out to be 87 ng·h/mL. The compound also yielded a bioavailability in series [14] of 7.5%.

For the compound `C[C@H](NS(=O)(=O)c1ccc(-c2sc(C(=O)N[C@H]3C[C@H](C(=O)O)C3)nc2CC2CCCCC2)c2ccccc12)C(F)(F)F`, in series [15], the Stability result is recorded as “Stable”.

Take `CC(C)(C)NS(=O)(=O)c1ccc(-c2sc(C(=O)NCCN3CCOCC3)nc2CC2CCCCC2)c2ccccc12`: in [2], the solubility thermodynamic at 10000 µM is under 4 µM. In addition, the figures for the half-life in series [5] and in [6] were 5.1 min and under 4 min, respectively. Further, the INH at Cytochrome P450 1A2 was over 10 µM; on Cytochrome P450 2C19, 1.1 µM; at Cytochrome P450 2C8 it was 2.8 µM; at Cytochrome P450 2C9, 0.4 µM; on Cytochrome P450 2D6, 6.2 µM; on Cytochrome P450 3A4 it was 7.1 µM. In addition, the “inhibition (INH)” value in series [16] was “Not Active”.

In general, AUC refers to the area under the concentration-time curve, a measure of exposure. A high value points to more exposure. The Cmax is the highest concentration seen after dosing. The term Tmax denotes the time from dosing to the highest level. In general, AUC(0-inf) refers to the area under the concentration-time curve extrapolated to infinity. A low value points to less exposure. A word on the bioavailability: it is dose-corrected exposure relative to a reference, in per cent.
